Publication PMC12649549, “Sequence Permutation Generated Lysine and Tryptophan-Rich Antimicrobial Peptides with Enhanced Therapeutic Index” (Antibiotics, 2025)
Where two headings read alike, the source gives them in different places.

How the values were obtained:
S. aureus ATCC 33593 = test system: S. aureus ATCC 33593
How it was run: (§1)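 Salt and pH tolerance was assessed by determining MICs in LYM medium containing 50–300 mM NaCl, 0.5–2.5 mM MgCl2, or at pH 4.5–6.5, alongside MH broth. The inoculum was 5 × 10^5 CFU/mL.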

[1] = test system: Pseudomonas aeruginosa Migula (ATCC 27853)
How it was run: as §1

[2] = test system: A. baumannii 14B0097 (Acinetobacter sp., BCRC number 14B0097)
How it was run: as §1

S. aureus ATCC 33592 = test system: S. aureus ATCC 33592
How it was run: as §1

Gram-positive bacteria = assay: Geometric mean MIC and therapeutic index, Gram-positive bacteria; type: cell-based; settings: Gram-positive bacteria; for GM G+ (geometric mean of the MIC values): MH broth, MIC >50 µg/mL counted as 100 µg/mL; for Therapeutic Index (TI) G+: HC10/GM
How it was run: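 Therapeutic index taken as the ratio of HC10 on human erythrocytes to geometric mean MIC. MICs from CLSI broth microdilution with peptides at 50 down to 0.78 µg/mL, inoculum 5 × 10^5 CFU/mL, in MH or modified LYM broth; triplicate independent experiments.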

[3] = LYM broth, 0 mM NaCl, 16 h, 37 °C
[4] = LYM broth, 50 mM NaCl, 16 h, 37 °C
[5] = LYM broth, 100 mM NaCl, 16 h, 37 °C
[6] = LYM broth, 200 mM (NaCl), 16 h, 37 °C
[7] = LYM broth, 300 mM (NaCl), 16 h, 37 °C
[8] = MH broth, 5 × 10^5 CFU/mL, 16 h, 37 °C, repeated three times

Substance: Ac-LKWLAKKKKWRKW-NH2 [Peptide W5K06]
- MIC (S. aureus ATCC 33593; [3]): 12.5 µg/mL
- MIC (S. aureus ATCC 33593; LYM broth, 0.5 mM MgCl2): 12.5 µg/mL
- MIC (S. aureus ATCC 33593; LYM broth, 1.5 mM MgCl2): 25 µg/mL
- MIC (S. aureus ATCC 33593; LYM broth, 2.5 mM MgCl2): 25 µg/mL
- MIC (S. aureus ATCC 33593; [4]): 25 µg/mL
- MIC (S. aureus ATCC 33593; [5]): 50 µg/mL
- MIC (S. aureus ATCC 33593; [6]): >50 µg/mL
- MIC (S. aureus ATCC 33593; [7]): >50 µg/mL
- MIC (S. aureus ATCC 33593; LYM broth, pH 4.5): 12.5 µg/mL
- MIC (S. aureus ATCC 33593; LYM broth, pH 5.5): 6.25 µg/mL
- MIC (S. aureus ATCC 33593; LYM broth, pH 6.5): 6.25 µg/mL
- MIC (S. aureus ATCC 33593; [8]): >50 µg/mL
- MIC [1, 3]: 6.25 µg/mL
- MIC ([1]; LYM broth, 0.5 mM MgCl2): 6.25 µg/mL
- MIC ([1]; LYM broth, 1.5 mM MgCl2): 6.25 µg/mL
- MIC ([1]; LYM broth, 2.5 mM MgCl2): 25 µg/mL
- MIC [1, 5]: 25 µg/mL
- MIC [1, 6]: >50 µg/mL
- MIC [1, 7]: >50 µg/mL
- MIC ([1]; LYM broth, pH 4.5): 25 µg/mL
- MIC ([1]; LYM broth, pH 5.5): 6.25 µg/mL
- MIC ([1]; LYM broth, pH 6.5): 3.13 µg/mL
- MIC [1, 8]: 50 µg/mL
- MIC [2, 3]: 3.13 µg/mL
- MIC ([2]; LYM broth, 0.5 mM MgCl2): 3.13 µg/mL
- MIC ([2]; LYM broth, 1.5 mM MgCl2): 3.13 µg/mL
- MIC ([2]; LYM broth, 2.5 mM MgCl2): 3.13 µg/mL
- MIC [2, 4]: 3.13 µg/mL
- MIC [2, 5]: 6.25 µg/mL
- MIC [2, 6]: 50 µg/mL
- MIC [2, 7]: >50 µg/mL
- MIC ([2]; LYM broth, pH 4.5): 3.13 µg/mL
- MIC ([2]; LYM broth, pH 5.5): 3.13 µg/mL
- MIC ([2]; LYM broth, pH 6.5): 1.56 µg/mL
- MIC [2, 8]: 50 µg/mL
- MIC (S. aureus ATCC 33592; [3]): 12.5 µg/mL
- MIC (S. aureus ATCC 33592; LYM broth, 0.5 mM MgCl2): 12.5 µg/mL
- MIC (S. aureus ATCC 33592; LYM broth, 1.5 mM MgCl2): 25 µg/mL
- MIC (S. aureus ATCC 33592; LYM broth, 2.5 mM MgCl2): 25 µg/mL
- MIC (S. aureus ATCC 33592; [4]): 25 µg/mL
- MIC (S. aureus ATCC 33592; [5]): 50 µg/mL
- MIC (S. aureus ATCC 33592; [6]): >50 µg/mL
- MIC (S. aureus ATCC 33592; [7]): >50 µg/mL
- MIC (S. aureus ATCC 33592; LYM broth, pH 4.5): 12.5 µg/mL
- MIC (S. aureus ATCC 33592; LYM broth, pH 5.5): 12.5 µg/mL
- MIC (S. aureus ATCC 33592; LYM broth, pH 6.5): 6.25 µg/mL
- MIC (S. aureus ATCC 33592; [8]): >50 µg/mL
- GM G+ (geometric mean of the MIC values) (Gram-positive bacteria): 75.8 µg/mL
- Therapeutic Index (TI) G+ (Gram-positive bacteria): 1.4

Substance: Ac-RKWLKWLAKKKKW-NH2 [Peptide W5K03]
- MIC (S. aureus ATCC 33593; [3]): 25 µg/mL
- MIC (S. aureus ATCC 33593; LYM broth, 0.5 mM MgCl2): 25 µg/mL
- MIC (S. aureus ATCC 33593; LYM broth, 1.5 mM MgCl2): 25 µg/mL
- MIC (S. aureus ATCC 33593; LYM broth, 2.5 mM MgCl2): 50 µg/mL
- MIC (S. aureus ATCC 33593; [4]): 25 µg/mL
- MIC (S. aureus ATCC 33593; [5]): 50 µg/mL
- MIC (S. aureus ATCC 33593; [6]): >50 µg/mL
- MIC (S. aureus ATCC 33593; [7]): >50 µg/mL
- MIC (S. aureus ATCC 33593; LYM broth, pH 4.5): 25 µg/mL
- MIC (S. aureus ATCC 33593; LYM broth, pH 5.5): 25 µg/mL
- MIC (S. aureus ATCC 33593; LYM broth, pH 6.5): 12.5 µg/mL
- MIC (S. aureus ATCC 33593; [8]): >50 µg/mL
- MIC [1, 3]: 6.25 µg/mL
- MIC ([1]; LYM broth, 0.5 mM MgCl2): 6.25 µg/mL
- MIC ([1]; LYM broth, 1.5 mM MgCl2): 12.5 µg/mL
- MIC ([1]; LYM broth, 2.5 mM MgCl2): 12.5 µg/mL
- MIC [1, 4]: 12.5 µg/mL
- MIC [1, 5]: 25 µg/mL
- MIC [1, 6]: 25 µg/mL
- MIC [1, 7]: >50 µg/mL
- MIC ([1]; LYM broth, pH 4.5): 12.5 µg/mL
- MIC ([1]; LYM broth, pH 5.5): 6.25 µg/mL
- MIC ([1]; LYM broth, pH 6.5): 3.13 µg/mL
- MIC [1, 8]: 50 µg/mL
- MIC [2, 3]: 1.56 µg/mL
- MIC ([2]; LYM broth, 0.5 mM MgCl2): 3.13 µg/mL
- MIC ([2]; LYM broth, 1.5 mM MgCl2): 3.13 µg/mL
- MIC ([2]; LYM broth, 2.5 mM MgCl2): 3.13 µg/mL
- MIC [2, 4]: 3.13 µg/mL
- MIC [2, 5]: 3.13 µg/mL
- MIC [2, 6]: 6.25 µg/mL
- MIC [2, 7]: 25 µg/mL
- MIC ([2]; LYM broth, pH 4.5): 3.13 µg/mL
- MIC ([2]; LYM broth, pH 5.5): 3.13 µg/mL
- MIC ([2]; LYM broth, pH 6.5): 3.13 µg/mL
- MIC [2, 8]: 6.25 µg/mL
- MIC (S. aureus ATCC 33592; [3]): 25 µg/mL
- MIC (S. aureus ATCC 33592; LYM broth, 0.5 mM MgCl2): 25 µg/mL
- MIC (S. aureus ATCC 33592; LYM broth, 1.5 mM MgCl2): 25 µg/mL
- MIC (S. aureus ATCC 33592; LYM broth, 2.5 mM MgCl2): 25 µg/mL
- MIC (S. aureus ATCC 33592; [4]): 25 µg/mL
- MIC (S. aureus ATCC 33592; [5]): 50 µg/mL
- MIC (S. aureus ATCC 33592; [6]): >50 µg/mL
- MIC (S. aureus ATCC 33592; [7]): >50 µg/mL
- MIC (S. aureus ATCC 33592; LYM broth, pH 4.5): 25 µg/mL
- MIC (S. aureus ATCC 33592; LYM broth, pH 5.5): 12.5 µg/mL
- MIC (S. aureus ATCC 33592; LYM broth, pH 6.5): 12.5 µg/mL
- MIC (S. aureus ATCC 33592; [8]): >50 µg/mL
- GM G+ (geometric mean of the MIC values) (Gram-positive bacteria): 66.0 µg/mL
- Therapeutic Index (TI) G+ (Gram-positive bacteria): 1.6

Substance: Ac-WLAKKKKWRKWLK-NH2 [Peptide W5K08]
- MIC (S. aureus ATCC 33593; [3]): 25 µg/mL
- MIC (S. aureus ATCC 33593; LYM broth, 0.5 mM MgCl2): 25 µg/mL
- MIC (S. aureus ATCC 33593; LYM broth, 1.5 mM MgCl2): 25 µg/mL
- MIC (S. aureus ATCC 33593; LYM broth, 2.5 mM MgCl2): 50 µg/mL
- MIC (S. aureus ATCC 33593; [4]): 50 µg/mL
- MIC (S. aureus ATCC 33593; [5]): 50 µg/mL
- MIC (S. aureus ATCC 33593; [6]): >50 µg/mL
- MIC (S. aureus ATCC 33593; [7]): >50 µg/mL
- MIC (S. aureus ATCC 33593; LYM broth, pH 4.5): 25 µg/mL
- MIC (S. aureus ATCC 33593; LYM broth, pH 5.5): 12.5 µg/mL
- MIC (S. aureus ATCC 33593; LYM broth, pH 6.5): 12.5 µg/mL
- MIC (S. aureus ATCC 33593; [8]): >50 µg/mL
- MIC [1, 3]: 3.13 µg/mL
- MIC ([1]; LYM broth, 0.5 mM MgCl2): 3.13 µg/mL
- MIC ([1]; LYM broth, 1.5 mM MgCl2): 6.25 µg/mL
- MIC ([1]; LYM broth, 2.5 mM MgCl2): 12.5 µg/mL
- MIC [1, 4]: 6.25 µg/mL
- MIC [1, 5]: 25 µg/mL
- MIC [1, 6]: 50 µg/mL
- MIC [1, 7]: >50 µg/mL
- MIC ([1]; LYM broth, pH 4.5): 6.25 µg/mL
- MIC ([1]; LYM broth, pH 5.5): 3.13 µg/mL
- MIC ([1]; LYM broth, pH 6.5): 3.13 µg/mL
- MIC [1, 8]: 25 µg/mL
- MIC [2, 3]: 3.13 µg/mL
- MIC ([2]; LYM broth, 0.5 mM MgCl2): 3.13 µg/mL
- MIC ([2]; LYM broth, 1.5 mM MgCl2): 3.13 µg/mL
- MIC ([2]; LYM broth, 2.5 mM MgCl2): 6.25 µg/mL
- MIC [2, 4]: 6.25 µg/mL
- MIC [2, 5]: 12.5 µg/mL
- MIC [2, 6]: 50 µg/mL
- MIC [2, 7]: >50 µg/mL
- MIC ([2]; LYM broth, pH 4.5): 6.25 µg/mL
- MIC ([2]; LYM broth, pH 5.5): 3.13 µg/mL
- MIC ([2]; LYM broth, pH 6.5): 3.13 µg/mL
- MIC [2, 8]: 25 µg/mL
- MIC (S. aureus ATCC 33592; [3]): 25 µg/mL
- MIC (S. aureus ATCC 33592; LYM broth, 0.5 mM MgCl2): 25 µg/mL
- MIC (S. aureus ATCC 33592; LYM broth, 1.5 mM MgCl2): 25 µg/mL
- MIC (S. aureus ATCC 33592; LYM broth, 2.5 mM MgCl2): 50 µg/mL
- MIC (S. aureus ATCC 33592; [4]): 50 µg/mL
- MIC (S. aureus ATCC 33592; [5]): 50 µg/mL
- MIC (S. aureus ATCC 33592; [6]): >50 µg/mL
- MIC (S. aureus ATCC 33592; [7]): >50 µg/mL
- MIC (S. aureus ATCC 33592; LYM broth, pH 4.5): 25 µg/mL
- MIC (S. aureus ATCC 33592; LYM broth, pH 5.5): 25 µg/mL
- MIC (S. aureus ATCC 33592; LYM broth, pH 6.5): 12.5 µg/mL
- MIC (S. aureus ATCC 33592; [8]): >50 µg/mL
- GM G+ (geometric mean of the MIC values) (Gram-positive bacteria): 75.8 µg/mL
- Therapeutic Index (TI) G+ (Gram-positive bacteria): 1.4
